How the values were obtained:
Assay type in all cases: cell-based, human
D54-MG-GFP glioma cells = test: Transwell migration assay; conditions: antagonist 1 μM with BK, 5 h
Method: The day before the experiment was performed, ˜70% confluent dishes of cells were prepared. Transwell migration Fluoroblock cell culture inserts (BD Biosciences, San Jose, Calif.) with 8 μm pores were coated overnight with Vitronectin (BD Biosciences, San Jose, Calif.) at a concentration of 5 μg/ml in PBS. The following day, inserts were blocked with 1% fatty acid-free bovine serum albumin for 1 h. Inserts were then washed two times in PBS, and 400 μl of Migration Assay Buffer (MAB, 0.1% fatty acid-free bovine serum albumin in serum-free media) was added to the bottom of each well. Cells were rinsed once in PBS and were lifted off the dish by the addition of 0.5 mm EGTA. Cells were rinsed twice by centrifugation and resuspended in MAB and counted. Forty thousand cells were plated on the top of each filter and allowed to adhere for 30 min before drug was added. When BK+/−antagonists was added to the filters, it was added only to the bottom of the filter for chemotaxis. For migration assay, D54-EGFP MG cells were allowed to migrate for 5 hours, washed with PBS, fixed with 4% paraformaldehyde 15 minutes at room temperature, washed thrice and counterstained with DAPI for 5 minutes at room temperature. Invasion assay was performed similarly. Matrigel cell cultured inserts (BD Biosciences, San Jose, Calif.) with 8 μm pores were pretreated Vitronectin and blocked as described above. […] The number of nuclei that migrated through pores was counted. All counts per treatment were averaged and SE values were calculated. […]
To investigate the hypothesis that BK promotes glioma migration in vitro, we used Transwell migration assay which conveniently permit examination of cell migration across a membrane barrier with 8 μm pores towards vitronectin, a chemo-attractant extracellular matrix protein. This frequently used assay allows a quantitative study of drug effects with regards to drugs acting as motogens or as chemo-attractants. […]

[1] = test system: MMP gelatinase activity of D54 MG cells; test: in-situ zymography of gelatinolytic MMP activity (DQ gelatin); conditions: BK plus B2R antagonist
Method: To assess gelatinolytic MMP activity we used in situ zymography, as described previously (Deshane J et al, 2003). Briefly, after cell nuclei were labeled with Hoechst dye, fluorescein isothiocyanate-labeled DQ gelatin with BK+/−antagonists (Molecular Probes, Eugene, Oreg.) was applied overnight on the coverslips plated with D54 MG cells. Coverslips where drugs were omitted were processed in parallel and used as controls. At the end of the incubation period, cells were photographed by fluorescence microscopy with a Zeiss Axiovert 200 M microscope using a 20× objective. Quantification of fluorescent staining intensity after background subtraction was done using Slidebook 4.2 software (Intelligent Imaging Innovations, Denver, Colo.). Experiments were repeated three times.
To investigate the hypothesis that BK promotes glioma migration in vitro, we used Transwell migration assay which conveniently permit examination of cell migration across a membrane barrier with 8 μm pores towards vitronectin, a chemo-attractant extracellular matrix protein. This frequently used assay allows a quantitative study of drug effects with regards to drugs acting as motogens or as chemo-attractants. D54-MG-GFP glioma cells were allowed to migrate for 5 h in the presence/absence of neuroligands. […] Next, we tested glioma cell migration in various BK concentrations. […]

D54-MG-GFP cells = test: time-lapse motility assay in BK concentration gradient, D54-MG-GFP; conditions: for cells moved towards increasing BK concentration: BK gradient in presence of antagonist, cells moving in random fashion; for directionality of movement: antagonist in addition to BK
Method: Time-lapse studies were performed using a stably transfected daughter cell line from D54-MG cells that express EGFP, previously generated in the lab (Habela et al., 2009) and U251-EGFP cell line to visualize cells as they migrate. Increased motility was tested using an Ibidi chemotaxis chamber that is commercially available from Ibidi Scientific (Ibidi GmbH, Martinsried, Germany), and which has been used in previous studies (Kronlage et al., 2010; Fabian et al., 2010) with D54-EGFP MG cells seeded. Liquid chemical gradients were established in the μ-channel of the μ-chamber as follows: the dye Patent Blue V Blue Sodium Salt (1 mg/ml in medium) was mixed with equivolume of medium+/−1 mM stock of BK+/−1 mM stocks of HOE-140 or BZ; half of the volume was loaded in the well at one side of the μ-channel, and the identical volume was then aspirated from the well on the other side of the μ-channel. This created concentration gradient easily visualized by the dye. 12-15 different positions along the concentration gradient were imaged every 5 minutes over 5 hours period on a Zeiss Axiovert 200M system equipped with a Zeiss micro-incubation chamber that maintains cells at constant temperature (37° C.) and 95%/5% CO2/O2 for extended periods of time. We obtained images from different sections using 20× objective and FITC filter, along with DIC images. 500× neutral density filters and capture images using Axiovision software and a digital Axiocam HR 1 megapixel camera in 2*2 binning mode was used. Data was analyzed using the imaging tools provided by National Institutes of Health Image J and Tracking, and Chemotaxis and Migration Tool plugins (Jacobelli et al., 2009; Coller et al., 2009; Kronlage et al., 2010; Fabian et al., 2010) by randomly selecting 15 cells for each field of view. Cells treated with BK+/−antagonists were compared with controls where only dye was added. These experiments were repeated in triplicates.
As calcium dynamics are often correlated with cell motility time-lapse studies were performed using a stably transfected daughter cell line from D54-MG cells that expresses GFP to visualize cells as they migrate (FIG. 3A). Increased motility was tested in μ-slides in which a BK concentration gradient can be maintained.

SMILES: N=C(N)NCCCC(NC(=O)[C@H](N)CCCNC(=N)N)C(=O)N1CCC[C@H]1C(=O)N1C[C@H](O)C[C@H]1C(=O)NCC(=O)N[C@@H](Cc1cccs1)C(=O)N[C@@H](CO)C(=O)N1Cc2ccccc2C[C@@H]1C(=O)N1C2CCCCC2C[C@H]1C(=O)N[C@H](CCCNC(=N)N)C(=O)O (stereo partly drawn) [HOE-140, D-Arg-[Hyp^3, Thi^5, D-Tic^7, Oic^8]bradykinin]
- BK-induced increase in cells migrating through the pores (D54-MG-GFP glioma cells): eliminated
- MMP activity (fluorescence of DQ gelatin) [1]: reduction of the fluorescence back to control levels
- cells moved towards increasing BK concentration (D54-MG-GFP cells): 8/15
- directionality of movement (D54-MG-GFP cells): failed to show any directionality of movement

SMILES: CN(C)CCN(C)CCNC(=O)[C@@H]1CCCN1S(=O)(=O)c1ccc(NNC(=S)NC(c2ccccc2)c2ccccc2)c([N+](=O)[O-])c1 [Bradyzide]
- BK-induced increase in cells migrating through the pores (D54-MG-GFP glioma cells): eliminated
- MMP activity (fluorescence of DQ gelatin) [1]: reduction of the fluorescence back to control levels
- cells moved towards increasing BK concentration (D54-MG-GFP cells): 6/15
- directionality of movement (D54-MG-GFP cells): failed to show any directionality of movement
